Measurements published in ChEMBL document CHEMBL1821683, “Synthesis of rhodamine B-benzenesulfonamide conjugates and their inhibitory activity against human α- and bacterial/fungal β-carbonic anhydrases” (Bioorg Med Chem Lett, 2011).

Key:
Carbonic anhydrase = biological target: T1, Carbonic anhydrase (Candida albicans (strain SC5314 / ATCC MYA-2876) (Yeast), UniProt Q5AJ71)
T1 sequence (Q5AJ71 whole entry): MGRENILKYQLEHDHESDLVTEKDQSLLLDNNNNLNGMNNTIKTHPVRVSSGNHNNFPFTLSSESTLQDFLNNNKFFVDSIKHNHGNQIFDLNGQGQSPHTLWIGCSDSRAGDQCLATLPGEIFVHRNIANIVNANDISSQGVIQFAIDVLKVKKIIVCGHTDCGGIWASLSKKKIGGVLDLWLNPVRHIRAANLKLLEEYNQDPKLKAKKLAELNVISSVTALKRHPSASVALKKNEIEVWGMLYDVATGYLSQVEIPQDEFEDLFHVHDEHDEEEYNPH

Carbonic anhydrase 12 = Carbonic anhydrase 12 (Homo sapiens, UniProt O43570); assay: Inhibition of human carbonic anhydrase 12 preincubated for 15 mins at pH 7.5 by stopped flow CO2 hydration method
Carbonic anhydrase 9 = Carbonic anhydrase 9 (Homo sapiens, UniProt Q16790)
Carbonic anhydrase 7 = Carbonic anhydrase 7 (Homo sapiens, UniProt P43166)
Carbonic anhydrase 2 = Carbonic anhydrase 2 (Homo sapiens, UniProt P00918); assay: Inhibition of human carbonic anhydrase 2 preincubated for 15 mins at pH 7.5 by stopped flow CO2 hydration method
Carbonic anhydrase 1 = Carbonic anhydrase 1 (Homo sapiens, UniProt P00915)
Carbonic anhydrase 1, sequence (P00915 whole entry): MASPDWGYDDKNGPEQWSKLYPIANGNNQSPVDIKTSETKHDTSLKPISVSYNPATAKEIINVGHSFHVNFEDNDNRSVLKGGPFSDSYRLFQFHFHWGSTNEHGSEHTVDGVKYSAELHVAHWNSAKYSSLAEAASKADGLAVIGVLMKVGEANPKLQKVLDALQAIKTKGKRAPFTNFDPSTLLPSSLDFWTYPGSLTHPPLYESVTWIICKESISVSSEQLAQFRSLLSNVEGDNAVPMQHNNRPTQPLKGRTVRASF

Carbonic anhydrase 7, sequence (P43166 whole entry): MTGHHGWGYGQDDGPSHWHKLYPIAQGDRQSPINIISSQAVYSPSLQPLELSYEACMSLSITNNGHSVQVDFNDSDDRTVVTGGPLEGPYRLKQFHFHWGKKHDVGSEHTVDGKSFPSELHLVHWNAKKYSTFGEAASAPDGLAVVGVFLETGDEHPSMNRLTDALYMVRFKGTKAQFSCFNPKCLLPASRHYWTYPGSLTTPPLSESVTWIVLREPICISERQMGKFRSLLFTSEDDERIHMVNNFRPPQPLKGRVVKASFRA
Carbonic anhydrase 12, sequence (O43570 whole entry): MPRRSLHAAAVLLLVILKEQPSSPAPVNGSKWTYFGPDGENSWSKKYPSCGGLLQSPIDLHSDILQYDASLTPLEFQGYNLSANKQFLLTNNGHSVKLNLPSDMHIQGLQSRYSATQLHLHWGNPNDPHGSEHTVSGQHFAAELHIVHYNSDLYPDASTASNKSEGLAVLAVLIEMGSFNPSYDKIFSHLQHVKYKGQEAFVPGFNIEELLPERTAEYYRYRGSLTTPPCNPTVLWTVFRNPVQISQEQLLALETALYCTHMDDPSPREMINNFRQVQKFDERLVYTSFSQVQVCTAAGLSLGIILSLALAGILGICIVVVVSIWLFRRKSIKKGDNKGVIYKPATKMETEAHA

Structure (SMILES) | Ki (Carbonic anhydrase) | Ki (Carbonic anhydrase 12) | Ki (Carbonic anhydrase 9) | Ki (Carbonic anhydrase 7) | Ki (Carbonic anhydrase 2) | Ki (Carbonic anhydrase 1)
CCN(CC)c1ccc2c(c1)Oc1cc(N(CC)CC)ccc1C21c2ccccc2C(=O)N1c1cccc(S(N)(=O)=O)c1 | 4100 nM | 10.5 nM | 24 nM | 12.1 nM | 21.5 nM | 311 nM
CCN(CC)c1ccc2c(c1)Oc1cc(N(CC)CC)ccc1C21c2ccccc2C(=O)N1c1ccc(S(N)(=O)=O)cc1 | 4990 nM | 9.1 nM |  | 60.2 nM | 279 nM | 512 nM
CCN(CC)c1ccc2c(c1)Oc1cc(N(CC)CC)ccc1C21c2ccccc2C(=O)N1CCc1ccc(S(N)(=O)=O)cc1 | 4730 nM | 25.3 nM | 19.4 nM | 91.7 nM | 955 nM | 692 nM
CCN(CC)c1ccc2c(c1)Oc1cc(N(CC)CC)ccc1C21c2ccccc2C(=O)N1Cc1ccc(S(N)(=O)=O)cc1 | 5320 nM | 8.6 nM | 10.2 nM | 34.9 nM | 980 nM | 714 nM
